Source: patent US20120014950A1, “Antibodies That Specifically Bind to DR3” (Xencor, Inc., priority 2010, published 2012)

Tests used:
[1] = tested on: collagen induced arthritis (CIA) mice; experiment: Murine collagen induced arthritis (CIA) model; assay type: in vivo, DBA/1JLacJ mice; conditions: i.p., 200 μg (dexamethasone 50 μg)
Protocol: In general CIA was induced using the following protocol. Male DBA/1JLacJ mice (8-10 weeks) were injected intradermally (i.d.) at the base of the tail with […] of type II bovine collagen (CII) and complete Freund's adjuvant (CFA) at a final concentration of 4 mg/ml on Day 1. Mice were given a second injection i.d. with CII and CFA on Day 21. On days 21, 28, 35, and 42, mice were treated prophylactically with 200 μg intraperitoneal (i.p.) of the therapeutic molecules, anti-TNF-α antibody (R&D systems, cat #AB-410-NA) or D06-Fab-MSA. In addition, a control group of mice was not treated with a therapeutic molecule (“No Treatment”) and a second control group was treated with 50 μg dexamethasone i.p. every other day (e.o.d.) (“Dexamethasone”). The animals were scored every other day until the experiment was terminated on Day 46.
In a separate experiment, on days 21, 28, 35, and 42, CIA-mice were treated prophylactically with 200 μg intraperitoneal (i.p.) of either 2D9-Fab-MSA, or 5D10-Fab-MSA. In addition, a control group of mice was treated with an isotype control antibody (IgG1). The animals were scored every other day until the experiment was terminated on Day 46. Clinical scores were determined as above.
Histology was preformed to further determine the degree of inflammation as well as potential bone erosion in these animals. […]

DR3 receptor = biological target: T1, DR3 receptor (Homo sapiens, UniProt Q93038); experiment: TF-1 assay (cell viability, cycloheximide, Cell Titer Glo); assay type: cell-based; conditions: TF-1 cells with cycloheximide; luminescence
T1 construct: endogenous in cells; host or cells: TF-1 (premyeloid)
T1 sequence (Q93038 25-417): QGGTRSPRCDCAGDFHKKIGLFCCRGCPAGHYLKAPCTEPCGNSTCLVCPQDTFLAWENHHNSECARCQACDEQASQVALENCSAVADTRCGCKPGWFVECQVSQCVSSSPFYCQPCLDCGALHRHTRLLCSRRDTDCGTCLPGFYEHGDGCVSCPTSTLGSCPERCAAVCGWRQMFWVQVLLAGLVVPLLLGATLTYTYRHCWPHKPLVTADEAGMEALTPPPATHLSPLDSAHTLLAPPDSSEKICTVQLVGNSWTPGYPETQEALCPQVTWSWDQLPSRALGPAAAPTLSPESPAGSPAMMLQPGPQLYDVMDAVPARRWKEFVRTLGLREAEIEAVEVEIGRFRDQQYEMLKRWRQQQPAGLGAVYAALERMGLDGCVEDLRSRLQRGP

Molecule	% Arthritis Incidence at Day 42 [1]	TF-1 cell viability / apoptosis induction (agonist, TL1A-like activity) (DR3 receptor)
C[C@@H]1C[C@H]2[C@@H]3CCC4=CC(=O)C=C[C@]4(C)[C@@]3(F)[C@@H](O)C[C@]2(C)[C@@]1(O)C(=O)CO [Dexamethasone]	0%	
TL1A: human TL1A (TNFSF15), the natural ligand for DR3; positive control [reference compound]		induce apoptosis
